Laboratory results: the supplement of paper PMC4862054

Columns and labels:
Details in all cases: incubation time: 72 h
MDA-MB-436 [1] = assay: normalised response (% of control), CellTox Green; higher = less cell death (100 = DMSO, 0 = benzethonium chloride kill control)
Summary of the method: (§1)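 Each entry is the normalised signal at a single concentration within a series. The series comprised 5 concentrations in 10-fold steps over a compound-specific 10,000-fold range, placed in 384-well plates into which breast cancer cell lines were seeded as 20 µl suspension and incubated 72 h. CellTox Green (485/520 nm) fluorescence and then CellTiter-Glo luminescence were read, with signals normalised per plate to 0.1 % DMSO (100) and a positive kill control (0).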

HCC1143 [2] = assay: as above
Summary of the method: as §1

CAL-51 [3] = assay: as above
Summary of the method: as §1

BT-474 [4] = assay: as above
Summary of the method: as §1

CAL-120 [5] = assay: as above
Summary of the method: as §1

BT-549 [6] = assay: as above
Summary of the method: as §1

MCF-10A [7] = assay: as above
Summary of the method: as §1

DU-4475 [8] = assay: as above
Summary of the method: as §1

HCC1937 [9] = assay: as above
Summary of the method: as §1

CAL-85-1 [10] = assay: as above
Summary of the method: as §1

MDA-MB-453 [11] = assay: as above
Summary of the method: as §1

HCC1599 [12] = assay: as above
Summary of the method: as §1

MDA-MB-231 [13] = assay: as above
Summary of the method: as §1

HDQ-P1 [14] = assay: as above
Summary of the method: as §1

Hs578T [15] = assay: as above
Summary of the method: as §1

MFM-223 [16] = assay: as above
Summary of the method: as §1

MDA-MB-468 [17] = assay: as above
Summary of the method: as §1

CAL-148 [18] = assay: as above
Summary of the method: as §1

MDA-MB-436 [19] = assay: normalised response (% of control), CellTiter-Glo; higher = more viable cells (100 = DMSO, 0 = benzethonium chloride kill control)
Experimental: (§2)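 DSRT, 72 h incubation, CellTox Green / CellTiter-Glo readout. Signal is normalised to DMSO and benzethonium chloride controls. Value is the normalised response at dose 3.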

SK-BR-3 = assay: as above
Experimental: as §2

HCC1143 [20] = assay: as above
Experimental: as §2

CAL-51 [21] = assay: as above
Experimental: as §2

BT-474 [22] = assay: as above
Experimental: as §2

CAL-120 [23] = assay: as above
Experimental: as §2

BT-549 [24] = assay: as above
Experimental: as §2

MCF-10A [25] = assay: as above
Experimental: as §2

DU-4475 [26] = assay: as above
Experimental: as §2

HCC1937 [27] = assay: as above
Experimental: as §2

CAL-85-1 [28] = assay: as above
Experimental: as §2

MDA-MB-453 [29] = assay: as above
Experimental: as §2

HCC1599 [30] = assay: as above
Experimental: as §2

MDA-MB-231 [31] = assay: as above
Experimental: as §2

HDQ-P1 [32] = assay: as above
Experimental: as §2

Hs578T [33] = assay: as above
Experimental: as §2

MFM-223 [34] = assay: as above
Experimental: as §2

MDA-MB-468 [35] = assay: as above
Experimental: as §2

CAL-148 [36] = assay: as above
Experimental: as §2

Structure (SMILES) | normalised response (MDA-MB-436 [1]) [%] | normalised response (HCC1143 [2]) [%] | normalised response (CAL-51 [3]) [%] | normalised response (BT-474 [4]) [%] | normalised response (CAL-120 [5]) [%] | normalised response (BT-549 [6]) [%] | normalised response (MCF-10A [7]) [%] | normalised response (DU-4475 [8]) [%] | normalised response (HCC1937 [9]) [%] | normalised response (CAL-85-1 [10]) [%] | normalised response (MDA-MB-453 [11]) [%] | normalised response (HCC1599 [12]) [%] | normalised response (MDA-MB-231 [13]) [%] | normalised response (HDQ-P1 [14]) [%] | normalised response (Hs578T [15]) [%] | normalised response (MFM-223 [16]) [%] | normalised response (MDA-MB-468 [17]) [%] | normalised response (CAL-148 [18]) [%] | normalised response (MDA-MB-436 [19]) [%] | normalised response (SK-BR-3) [%] | normalised response (HCC1143 [20]) [%] | normalised response (CAL-51 [21]) [%] | normalised response (BT-474 [22]) [%] | normalised response (CAL-120 [23]) [%] | normalised response (BT-549 [24]) [%] | normalised response (MCF-10A [25]) [%] | normalised response (DU-4475 [26]) [%] | normalised response (HCC1937 [27]) [%] | normalised response (CAL-85-1 [28]) [%] | normalised response (MDA-MB-453 [29]) [%] | normalised response (HCC1599 [30]) [%] | normalised response (MDA-MB-231 [31]) [%] | normalised response (HDQ-P1 [32]) [%] | normalised response (Hs578T [33]) [%] | normalised response (MFM-223 [34]) [%] | normalised response (MDA-MB-468 [35]) [%] | normalised response (CAL-148 [36]) [%]
Cc1c2oc3c(C)ccc(C(=O)N[C@@H]4C(=O)N[C@H](C(C)C)C(=O)N5CCC[C@H]5C(=O)N(C)CC(=O)N(C)[C@@H](C(C)C)C(=O)O[C@@H]4C)c3nc-2c(C(=O)N[C@@H]2C(=O)N[C@H](C(C)C)C(=O)N3CCC[C@H]3C(=O)N(C)CC(=O)N(C)[C@@H](C(C)C)C(=O)O[C@@H]2C)c(N)c1=O [Dactinomycin] (10 nM) | 90.8 | 117 | -32.3 | 102 | 102 | 80.4 | 109 | 74.7 | 107 | 69.3 | 91.5 | 99.3 | 43.8 | 82.8 | 104 | 104 | 84 | 17.1 | 53.4 | 59.2 | 54.7 | 20.4 | 64.6 | 65 | 13.3 | 52.2 | 3.42 | 51 | 51.7 | 84.7 | 102 | 62.1 | 41.5 | 58.7 | 88.9 | 18.7 | 27.2
Cc1ccc(F)c(NC(=O)Nc2ccc(-c3cccc4[nH]nc(N)c34)cc2)c1 [Linifanib] (10 nM) | 72.8 | 108 | 109 | 99.7 | 99.2 | 96.7 | 56.1 | 102 | 104 | 97.2 | 108 | 111 | 91.7 | 112 | 87 | 108 | 121 | 108 | 108 | 103 | 107 | 102 | 107 | 102 | 96.7 | 110 | 105 | 99.5 | 92.7 | 97.2 | 108 | 111 | 97.3 | 105 | 106 | 106 | 112
CO[C@H]1C[C@@H]2CC[C@@H](C)[C@@](O)(O2)C(=O)C(=O)N2CCCC[C@H]2C(=O)O[C@H]([C@H](C)C[C@@H]2CC[C@@H](OC(=O)C(C)(CO)CO)[C@H](OC)C2)CC(=O)[C@H](C)/C=C(\C)[C@@H](O)[C@@H](OC)C(=O)[C@H](C)C[C@H](C)/C=C/C=C/C=C/1C [Temsirolimus] (1 nM) | 99.8 | 117 | 94.9 | 89.6 | 102 | 109 | 99.6 | 97.5 | 118 | 97.9 | 100 | 109 | 94.2 | 113 | 66.9 | 90.2 | 135 | 96.7 | 87.2 | 68.7 | 77.4 | 68.3 | 90.8 | 83.4 | 68.4 | 102 | 92.3 | 77.8 | 74.8 | 88.4 | 111 | 98.8 | 94.4 | 69.9 | 79.6 | 56.3 | 82.5
COc1cc(Nc2ncc3c(n2)-c2ccc(Cl)cc2C(c2c(F)cccc2OC)=NC3)ccc1C(=O)O [Alisertib] (100 nM) | 68.9 | 75 | 27.8 | 91.7 | 92.8 | 96.1 | 68.7 | 89.9 | 85.9 | 77.7 | 93.9 | 92.3 | 69.8 | 101 | -59.3 | 97 | 18.6 | 90.1 | 67.6 | 67.9 | 71.2 | 69.1 | 77.2 | 78.1 | 73.2 | 81.2 | 67 | 82.8 | 63.7 | 62 | 80.3 | 84 | 87 | 74.2 | 76.3 | 33.2 | 102
S=c1[nH]cnc2nc[nH]c12 [Mercaptopurine] (100 nM) | 102 | 91.9 | 94.5 | 91.2 | 98.4 | 94.6 | 99.5 | 98.8 | 101 | 108 | 103 | 98 | 80.6 | 66.2 | 92.4 | 82.7 | 134 | 95.9 | 96.1 | 98.3 | 104 | 96.9 | 95.1 | 92.5 | 104 | 94.6 | 96.8 | 94 | 90.8 | 95.5 | 91.3 | 101 | 105 | 96.6 | 98.5 | 88.4 | 81.7
Clc1ccc(C(c2ccccc2Cl)C(Cl)Cl)cc1 (configuration not stated) [Mitotane] (100 nM) | 88.1 | 92.2 | 101 | 100 | 92 | 94.6 | 78.6 | 97.9 | 95 | 105 | 106 | 100 | 95.5 | 95.8 | 91.4 | 77.9 | 120 | 101 | 97.8 | 97.7 | 100 | 94.8 | 94 | 97.8 | 99.6 | 92.2 | 97.2 | 95.4 | 101 | 95.5 | 93.7 | 98.7 | 102 | 95.3 | 95.6 | 92.9 | 96.2
